Results taken from patent publication US8440697B2, “Treatment of heart failure” (Heart Metabolics Limited, priority 2007, dated 2013).

Key:
symptomatic HCM patients [1] = assay: Side effects and deaths in HCM study; format: in vivo
Excerpt: (§1) The study was approved by the South Birmingham Research Ethics Committee and the investigation conforms with the principles outlined in the Declaration of Helsinki All study participants provided written informed consent. The study was a randomized, double blind, placebo-controlled parallel-group design of minimum 3 months duration. FIG. 3 represents a flow chart of the study. The pre-defined primary end point was peak oxygen consumption (peak VO2). Pre-defined secondary end points were symptomatic status, resting myocardial energetics (PCr/γ-ATP ratio) and diastolic function at rest and during exercise (nTTPF).
Diabetic patients were also excluded to maintain the blindness of the study as Perhexiline may lead to a reduction in plasma glucose in such patients necessitating a reduction in anti-diabetic therapy. 46 consecutive consenting patients who met these entry criteria were recruited into the study.
(§2) Following baseline studies, patients were randomized in a double-blind fashion to receive either perhexiline (n=25) or placebo (n=21) 100 mg OD. Serum perhexiline levels were obtained at 1 and 4 weeks after initiation of the drug. Dose adjustments were advised by an unblinded physician according to serum level to achieve therapeutic level and to avoid drug toxicity. Identical dosage adjustments were also made for randomly allocated placebo-treated patients by the unblinded observer to ensure that blinding of the investigators was maintained. At the end of study, patients were re-evaluated as described earlier.

symptomatic HCM patients [2] = assay: Radionuclide ventriculography, diastolic filling (nTTPF) at rest and during exercise in HCM study; format: in vivo, human
Excerpt: as §1, with “(nTTPF). 33 controls of similar age and gender distribution were recruited for comparison with baseline data of HCM patients. All controls had no history or symptoms of any cardiovascular disease with normal ECG and echocardiogram (LVEF≧55%).” for “(nTTPF).”
Patients were recruited from dedicated cardiomyopathy clinics at The Heart Hospital, University College London Hospitals, London and Queen Elizabeth Hospital, Birmingham, UK between 2006 and 2008. Inclusion criteria were 18 to 80 years old symptomatic HCM patients (predominant symptom breathlessness) in sinus rhythm with reduced peak VO2 (<75% of predicted for age and gender) and no significant LVOT obstruction at rest (gradient<30 mmHg). […]
Diastolic filling were assessed by equilibrium R-wave gated blood pool scintigraphy using a standard technique at rest and during graded semi erect exercise on a cycle ergometer (Atherton J J, Moore T D, Lele S S et al. Diastolic ventricular interaction in chronic heart failure. Lancet 1997; 349 (9067):1720-1724; Lele S S, Macfarlane D, Morrison S, Thomson H, Khafagi F, Frenneaux M. Determinants of exercise capacity in patients with coronary artery disease and mild to moderate systolic dysfunction. Role of heart rate and diastolic filling abnormalities. Eur Heart J 1996; 17(2):204-212). Peak left ventricular filling rate in terms of end-diastolic count per second (EDC/s) and time to peak filling normalised for R—R interval (nTTPF) in milliseconds were measured at rest and during exercise (50% of heart rate reserve). […]
(§3) Following baseline studies, patients were randomized in a double-blind fashion to receive either perhexiline (n=25) or placebo (n=21) 100 mg OD. […] At the end of study, patients were re-evaluated as described earlier.
(§4) Data were analyzed using SPSS ver. 15.0 for Window and Microsoft Office Excel 2007, and expressed as Mean±Standard Deviation (SD). Comparison of continuous variables between Perhexiline and Placebo baseline data were determined by unpaired Student's t-test (2-tail) if variables were normally distributed and the Mann-Whitney U-test if the data were non-normally distributed. […]

symptomatic HCM patients [3] = assay: 31P cardiac magnetic resonance spectroscopy, resting myocardial energetics (PCr/γ-ATP ratio) in HCM study; format: in vivo, human
Excerpt: as §1, with “(nTTPF). 33 controls of similar age and gender distribution were recruited for comparison with baseline data of HCM patients. All controls had no history or symptoms of any cardiovascular disease with normal ECG and echocardiogram (LVEF≧55%).” for “(nTTPF).”
Patients were recruited from dedicated cardiomyopathy clinics at The Heart Hospital, University College London Hospitals, London and Queen Elizabeth Hospital, Birmingham, UK between 2006 and 2008. […]
In vivo myocardial energetics were measured using a MRS at 3-Tesla Phillips Achieva 3T scanner (Shivu G N, Abozguia K, Phan T T, Ahmed I, Henning A, Frenneaux M. (31)P magnetic resonance spectroscopy to measure in vivo cardiac energetics in normal myocardium and hypertrophic cardiomyopathy: Experiences at 3T. Eur J Radiol 2008). A java magnetic resonance user interface v3.0 (jMRUI) was used for analysis (see Naressi A, Couturier C, Castang I, de Beer R, Graveron-Demilly D. Java-based graphical user interface for MRUI, a software package for quantitation of in vivo/medical magnetic resonance spectroscopy signals. Comput Biol Med 2001; 31(4):269-286)). […] Data were analyzed by an investigator who was blinded to the participants' clinical status. […]
as §3
Data were analyzed using SPSS ver. […]

symptomatic HCM patients [4] = assay: Cardiopulmonary exercise test (peak oxygen consumption), randomized double-blind placebo-controlled study in HCM; format: in vivo, human
Excerpt: as §1, with “(nTTPF). 33 controls of similar age and gender distribution were recruited for comparison with baseline data of HCM patients. All controls had no history or symptoms of any cardiovascular disease with normal ECG and echocardiogram (LVEF≧55%).” for “(nTTPF).”
(§5) Patients were recruited from dedicated cardiomyopathy clinics at The Heart Hospital, University College London Hospitals, London and Queen Elizabeth Hospital, Birmingham, UK between 2006 and 2008. Inclusion criteria were 18 to 80 years old symptomatic HCM patients (predominant symptom breathlessness) in sinus rhythm with reduced peak VO2 (<75% of predicted for age and gender) and no significant LVOT obstruction at rest (gradient<30 mmHg). Exclusion criteria were presence of epicardial coronary artery disease, abnormal liver function test, concomitant use of amiodarone or selective serotonin reuptake inhibitors (due to potential drug interactions with perhexiline), peripheral neuropathy and women of childbearing potential. Diabetic patients were also excluded to maintain the blindness of the study as Perhexiline may lead to a reduction in plasma glucose in such patients necessitating a reduction in anti-diabetic therapy. 46 consecutive consenting patients who met these entry criteria were recruited into the study.
This was performed using a Schiller CS-200 Ergo-Spiro exercise machine which was calibrated before every study. […]
as §3, §4

symptomatic HCM patients [5] = assay: Symptomatic status assessment (NYHA class, Minnesota Living with heart failure questionnaire) in HCM study; format: in vivo, human
Excerpt: as §1, with “(nTTPF). 33 controls of similar age and gender distribution were recruited for comparison with baseline data of HCM patients. All controls had no history or symptoms of any cardiovascular disease with normal ECG and echocardiogram (LVEF≧55%).” for “(nTTPF).”
as §5
All HCM patients filled in Minnesota Living with heart failure questionnaire and were also assessed for NHYA class.
as §2
Data were analyzed using SPSS ver. 15.0 for Window and Microsoft Office Excel 2007, and expressed as Mean±Standard Deviation (SD). Comparison of continuous variables between Perhexiline and Placebo baseline data were determined by unpaired Student's t-test (2-tail) if variables were normally distributed and the Mann-Whitney U-test if the data were non-normally distributed. ANCOVA with baseline values as covariates was performed to test for the significance of differences in the perhexiline versus placebo group after treatment. For the primary end point, the sample size required to detect a change in peak Vo2 of 3 ml/kg/min versus placebo group with a power of 90% and probability of 5% is 44. 30 patients will be required to identify a 5% change in cardiac PCr/ATP ratio with a power of 90% and a p value of <0.05. 40 patients will be required to detect a change ≧25% in nTTPF with power of 0.99 with probability of 5%. Therefore, we aimed to study 50 patients including the drop-outs, 32 of them will take part in the MRS study.

[6] = perhexiline group (n=25), during the first week of treatment

Question: For C1CCC(C(CC2CCCCN2)C2CCCCC2)CC1 (centres unmarked) [perhexiline, 2-(2,2-dicyclohexylethyl) piperidine], which “Side effects: dizziness (number of patients)” value (symptomatic HCM patients [1]; [6]) is on record?
Answer: Its value is 2.

Question: And the “Side effects: transient nausea (number of patients)” value (symptomatic HCM patients [1]; [6])?
Answer: The value was 3.

Question: And the “Deaths during the study period” value (symptomatic HCM patients [1]; whole study, perhexiline and placebo groups)?
Answer: The value was “no deaths”.

Question: What about the “Effect on nTTPF response to exercise, in words” value (symptomatic HCM patients [2]; FIG. 5D legend, p=0.03 vs placebo) of the same compound?
Answer: The value was “normalises the response to similar to that seen in healthy controls”.

Question: What about the “nTTPF at rest on therapy” value (symptomatic HCM patients [2]; perhexiline group, on therapy, at rest) of the same compound?
Answer: Its value is 0.19 ± 0.003 s.

Question: What about the “nTTPF during exercise on therapy” value (symptomatic HCM patients [2]; perhexiline group, on therapy, exercise at 50% of heart rate reserve) of the same compound?
Answer: The value was 0.19 ± 0.004 s.

Question: And the “nTTPF change rest to exercise on therapy” value (symptomatic HCM patients [2]; perhexiline group, on therapy, p=0.03 between perhexiline and placebo response)?
Answer: Its value is 0.00 ± 0.003 s.

Question: What about the “Effect on PCr/ATP ratio (energetic status of heart), in words” value (symptomatic HCM patients [3]; FIG. 5B legend, unchanged in placebo group) of the same compound?
Answer: The value was “improves”.

Question: What about the “PCr/γATP ratio after treatment” value (symptomatic HCM patients [3]; perhexiline group, resting, after treatment, p=0.003 vs placebo) of the same compound?
Answer: The value was 1.73±0.02.

Question: What about the “PCr/γATP ratio at baseline” value (symptomatic HCM patients [3]; perhexiline group, resting, before treatment, mean±SD) of the same compound?
Answer: The value was 1.27±0.02.

Question: What about the “Effect on peak VO2 (exercise capacity), in words” value (symptomatic HCM patients [4]; FIG. 5A legend, p=0.003 vs placebo) of the same compound?
Answer: Its value is “increases”.

Question: What about the “Peak VO2 at baseline” value (symptomatic HCM patients [4]; perhexiline group (n=25), before treatment, mean±SD) of the same compound?
Answer: Its value is 22.2 ± 0.2 mL/min/kg.

Question: And the “Peak VO2 after treatment” value (symptomatic HCM patients [4]; perhexiline group, 100 mg OD titrated to serum level, minimum 3 months, p=0.003 vs placebo response)?
Answer: Its value is 24.29 ± 0.2 mL/min/kg.

Question: And the “Increase in Peak VO2 after treatment” value (symptomatic HCM patients [4]; perhexiline group, after treatment vs baseline, placebo fell by -1.23, p=0.003)?
Answer: The value was 2.09 mL/min/kg.

Question: And the “NYHA score (of breathlessness), in words” value (symptomatic HCM patients [5]; FIG. 5E legend)?
Answer: Its value is “falls (improves)”.

Question: What about the “Minnesota living with heart failure questionnaire score, in words” value (symptomatic HCM patients [5]; FIG. 5F legend) of the same compound?
Answer: The value was “falls (=improved quality of life)”.

Question: What about the “Minnesota Living with heart failure questionnaire score after treatment” value (symptomatic HCM patients [5]; perhexiline group, after treatment, fall in score = improvement, p<0.001 vs placebo) of the same compound?
Answer: The value was 28±0.75.

Question: And the “Minnesota Living with heart failure questionnaire score at baseline” value (symptomatic HCM patients [5]; perhexiline group, before treatment)?
Answer: The value was 36.13±0.94.

Question: And the “Patients with worsening in NYHA classification” value (symptomatic HCM patients [5]; perhexiline group, placebo 20 percent)?
Answer: The value was 8%.

Question: And the “Patients with improvements in NYHA classification” value (symptomatic HCM patients [5]; perhexiline group, placebo 30 percent)?
Answer: The value was 67%.
